How the values were obtained:
foxtail, giant [1] = experiment: Test A preemergence; format: in vivo, Setaria faberii; details: preemergence; for Foxtail, Giant plant response rating (0 to 100 scale): 125 g ai/ha, visual injury approx. 10 days after treatment; for Foxtail, Giant plant response rating: 500 g ai/ha, visual injury after approx. 10 days, 0 to 100 scale (0 no effect, 100 complete control)
Outline: (§1)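 Pre- and postemergence greenhouse test; loam+sand; cpd in non-phytotox. solvent/surfactant; post at 1–2 leaf, 2–10 cm; visual score ~10 d, 0 = none, 100 = complete control.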

foxtail, giant [2] = experiment: Test C postemergence; format: in vivo, Setaria faberii; details: for Plant response rating (scale of 0 to 100 where 0 is no effect and 100 is complete control), Foxtail, Giant: Postemergence, 31 g ai/ha, visually evaluated after 13 to 15 days; for Foxtail, Giant plant response rating / Plant response rating, Foxtail, Giant: postemergence; for Foxtail, Giant plant response rating: 62 g ai/ha, scale 0 to 100
Outline: (§2)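 Seeds were sown in a loam soil–sand blend and sprayed preemergence with compounds formulated in a non-phytotoxic solvent mixture containing surfactant. Postemergence plants, grown in peat/vermiculite medium to 2–18 cm (1- to 4-leaf stage), received the same formulation. After 13 to 15 days in a greenhouse, injury was rated visually against controls (0 = no effect, 100 = complete control).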

blackgrass [3] = experiment: Test C preemergence; format: in vivo, Alopecurus myosuroides; details: preemergence; for Plant response rating, Blackgrass: 125 g ai/ha, scale 0 to 100, 0 = no effect, 100 = complete control
Outline: as §2

pigweed [4] = experiment: Test A preemergence; format: in vivo, Amaranthus retroflexus; details: preemergence; for Pigweed plant response rating (0 to 100 scale): 125 g ai/ha, visual injury approx. 10 days after treatment; for Pigweed plant response rating: 500 g ai/ha, visual injury after approx. 10 days, 0 to 100 scale (0 no effect, 100 complete control)
Outline: as §1

wheat = experiment: Test C postemergence; format: in vivo, Triticum aestivum; details: postemergence; for Plant response rating, Wheat: 250 g ai/ha, scale 0 to 100 (0 no effect, 100 complete control); for Wheat plant response rating: scale 0 to 100
Outline: as §2

corn = experiment: Test A postemergence; format: in vivo, Zea mays
Outline: as §1

barnyardgrass = experiment: Test C postemergence; format: in vivo, Echinochloa crus-galli; details: for Plant response rating (scale of 0 to 100 where 0 is no effect and 100 is complete control), Barnyardgrass: Postemergence, 31 g ai/ha, visually evaluated after 13 to 15 days; for Barnyardgrass plant response rating / Plant response rating, Barnyardgrass: postemergence; for Barnyardgrass plant response rating: 62 g ai/ha, scale 0 to 100
Outline: as §2

blackgrass [5] = experiment: Test C postemergence; format: in vivo, Alopecurus myosuroides; details: for Plant response rating (scale of 0 to 100 where 0 is no effect and 100 is complete control), Blackgrass: Postemergence, 31 g ai/ha, visually evaluated after 13 to 15 days; for Blackgrass plant response rating / Plant response rating, Blackgrass: postemergence; for Blackgrass plant response rating: 62 g ai/ha, scale 0 to 100
Outline: as §2

soybean = experiment: Test C postemergence; format: in vivo, Glycine max; details: postemergence; for Plant response rating, Soybean: 250 g ai/ha, scale 0 to 100 (0 no effect, 100 complete control); for Soybean plant response rating: 125 g ai/ha, scale 0 to 100, 0 no effect, 100 complete control
Outline: as §2

pigweed [6] = experiment: Test C preemergence; format: in vivo, Amaranthus retroflexus; details: preemergence; for Plant response rating, Pigweed: 125 g ai/ha, scale 0 to 100, 0 = no effect, 100 = complete control
Outline: as §2

ragweed = experiment: Test C postemergence; format: in vivo, Ambrosia elation; details: postemergence
Outline: as §2

crabgrass, large = experiment: Test A postemergence; format: in vivo, Digitaria sanguinalis
Outline: as §1

johnsongrass = experiment: Test C preemergence; format: in vivo, Sorghum halepense; details: preemergence; for Plant response rating, Johnsongrass: 125 g ai/ha, scale 0 to 100, 0 = no effect, 100 = complete control
Outline: as §2

galium = experiment: Test C preemergence; format: in vivo, Galium aparine; details: preemergence; for Plant response rating, Galium: 125 g ai/ha, scale 0 to 100, 0 = no effect, 100 = complete control
Outline: as §2

pigweed [7] = experiment: Test C postemergence; format: in vivo, Amaranthus retroflexus; details: postemergence; for Pigweed plant response rating: 62 g ai/ha, scale 0 to 100
Outline: as §2

[8] = 250 g ai/ha, scale 0 to 100 (0 no effect, 100 complete control)
[9] = 125 g ai/ha, scale 0 to 100, 0 no effect, 100 complete control
[10] = 31 g ai/ha, visual rating, scale 0 to 100 (0 no effect, 100 complete control), 13 to 15 days
[11] = 62 g ai/ha, scale 0 to 100 (0 no effect, 100 complete control), 13 to 15 days
[12] = 250 g ai/ha, scale 0 to 100, 0 is no effect, 100 is complete control
[13] = Postemergence, 500 g ai/ha, 0 to 100 scale (0 no effect, 100 complete control)
[14] = postemergence, 125 g ai/ha, about 10 days, visual rating on 0 to 100 scale (0 no effect, 100 complete control)

## CCCc1cc(C(=O)NC(C)C)nn1Cc1ccnc(C(F)(F)F)c1 [Compound 186]
foxtail, giant [1]
  Foxtail, Giant plant response rating (0 to 100 scale): 100
  Foxtail, Giant plant response rating: 100
foxtail, giant [2]
  Plant response rating (scale of 0 to 100 where 0 is no effect and 100 is complete control), Foxtail, Giant: 5
  Foxtail, Giant plant response rating: 30
foxtail, giant [2]; [8]
  Plant response rating, Foxtail, Giant: 75
foxtail, giant [2]; [9]
  Plant response rating, Foxtail, Giant: 60
Blackgrass [3]; [10]
  Blackgrass plant response rating: 85
Blackgrass [3]; [11]
  Blackgrass plant response rating: 90
Blackgrass [3]; 13 to 15 days
  Plant response rating, Blackgrass: 90
Blackgrass [3]; [12]
  Blackgrass plant response rating: 90
Pigweed [4]
  Pigweed plant response rating (0 to 100 scale): 0
  Pigweed plant response rating: 0
wheat
  Plant response rating, Wheat: 20
  Wheat plant response rating: 15
corn; [13]
  Corn plant response rating: 100
corn; [14]
  Corn plant response rating: 100
barnyardgrass
  Plant response rating (scale of 0 to 100 where 0 is no effect and 100 is complete control), Barnyardgrass: 5
  Barnyardgrass plant response rating: 10
barnyardgrass; [8]
  Plant response rating, Barnyardgrass: 55
barnyardgrass; [9]
  Plant response rating, Barnyardgrass: 10
Blackgrass [5]
  Plant response rating (scale of 0 to 100 where 0 is no effect and 100 is complete control), Blackgrass: 5
  Blackgrass plant response rating: 10
Blackgrass [5]; [8]
  Plant response rating, Blackgrass: 60
Blackgrass [5]; [9]
  Plant response rating, Blackgrass: 10
soybean
  Plant response rating, Soybean: 95
  Soybean plant response rating: 95
Pigweed [6]; [10]
  Pigweed plant response rating: 100
Pigweed [6]; [11]
  Pigweed plant response rating: 100
Pigweed [6]; 13 to 15 days
  Plant response rating, Pigweed: 100
Pigweed [6]; [12]
  Pigweed plant response rating: 100
ragweed; [8]
  Plant response rating, Ragweed: 70
ragweed; [9]
  Plant response rating, Ragweed: 55
crabgrass, large; [13]
  Crabgrass, Large plant response rating: 90
crabgrass, large; [14]
  Crabgrass, Large plant response rating: 90
johnsongrass; [10]
  Johnsongrass plant response rating: 75
johnsongrass; [11]
  Johnsongrass plant response rating: 98
johnsongrass; 13 to 15 days
  Plant response rating, Johnsongrass: 100
johnsongrass; [12]
  Johnsongrass plant response rating: 100
galium; [10]
  Galium plant response rating: 50
galium; [11]
  Galium plant response rating: 100
galium; 13 to 15 days
  Plant response rating, Galium: 100
galium; [12]
  Galium plant response rating: 95
Pigweed [7]
  Pigweed plant response rating: 70
Pigweed [7]; [8]
  Plant response rating, Pigweed: 85
Pigweed [7]; [9]
  Plant response rating, Pigweed: 85

## CCCNC(=O)c1cc(OCC)n(Cc2ccnc(C(F)(F)F)c2)n1 [Compound 187]
foxtail, giant [1]
  Foxtail, Giant plant response rating (0 to 100 scale): 100
  Foxtail, Giant plant response rating: 100
foxtail, giant [2]
  Plant response rating (scale of 0 to 100 where 0 is no effect and 100 is complete control), Foxtail, Giant: 5
  Foxtail, Giant plant response rating: 10
foxtail, giant [2]; [8]
  Plant response rating, Foxtail, Giant: 70
foxtail, giant [2]; [9]
  Plant response rating, Foxtail, Giant: 45
Blackgrass [3]; [10]
  Blackgrass plant response rating: 90
Blackgrass [3]; [11]
  Blackgrass plant response rating: 90
Blackgrass [3]; 13 to 15 days
  Plant response rating, Blackgrass: 90
Blackgrass [3]; [12]
  Blackgrass plant response rating: 95
Pigweed [4]
  Pigweed plant response rating (0 to 100 scale): 0
  Pigweed plant response rating: 0
wheat
  Plant response rating, Wheat: 15
  Wheat plant response rating: 10
corn; [13]
  Corn plant response rating: 100
corn; [14]
  Corn plant response rating: 80
barnyardgrass
  Plant response rating (scale of 0 to 100 where 0 is no effect and 100 is complete control), Barnyardgrass: 5
  Barnyardgrass plant response rating: 10
barnyardgrass; [8]
  Plant response rating, Barnyardgrass: 60
barnyardgrass; [9]
  Plant response rating, Barnyardgrass: 15
Blackgrass [5]
  Plant response rating (scale of 0 to 100 where 0 is no effect and 100 is complete control), Blackgrass: 10
  Blackgrass plant response rating: 5
Blackgrass [5]; [8]
  Plant response rating, Blackgrass: 80
Blackgrass [5]; [9]
  Plant response rating, Blackgrass: 30
soybean
  Plant response rating, Soybean: 98
  Soybean plant response rating: 95
Pigweed [6]; [10]
  Pigweed plant response rating: 70
Pigweed [6]; [11]
  Pigweed plant response rating: 100
Pigweed [6]; 13 to 15 days
  Plant response rating, Pigweed: 100
Pigweed [6]; [12]
  Pigweed plant response rating: 100
ragweed; [8]
  Plant response rating, Ragweed: 85
ragweed; [9]
  Plant response rating, Ragweed: 50
crabgrass, large; [13]
  Crabgrass, Large plant response rating: 90
crabgrass, large; [14]
  Crabgrass, Large plant response rating: 90
johnsongrass; [10]
  Johnsongrass plant response rating: 75
johnsongrass; [11]
  Johnsongrass plant response rating: 98
johnsongrass; 13 to 15 days
  Plant response rating, Johnsongrass: 100
johnsongrass; [12]
  Johnsongrass plant response rating: 100
galium; [10]
  Galium plant response rating: 90
galium; [11]
  Galium plant response rating: 95
galium; 13 to 15 days
  Plant response rating, Galium: 95
galium; [12]
  Galium plant response rating: 98
Pigweed [7]
  Pigweed plant response rating: 50
Pigweed [7]; [8]
  Plant response rating, Pigweed: 75
Pigweed [7]; [9]
  Plant response rating, Pigweed: 60

Reference: patent US20150105252A1, “SUBSTITUTED PYRAZOLES AS HERBICIDES” (E I DU PONT DE NEMOURS AND COMPANY, priority 2013, published 2015)
